Laboratory results taken from patent publication US10006080B2, “High-selectivity contact activation inhibitor based on infestin-4” (OBSCHESTVO S OGRANICHENNOY OTVETSTVENNOSTYU …, priority 2013, dated 2018).

How the values were obtained:
contact activation = assay: Thrombodynamics analyzer T-2, artifact clots far from the TF activator in normal frozen-thawed PFP; assay type: biochemical, human; details: MutB 20 μM, CTI 15 μM; for cuvette area occupied by artifact clots far from the activator: 30 minutes after activation, whole cuvette area without inhibitor; for suppression of contact activation, formation of artifact clots: 30 minutes after assay start, n=4
Procedure: The assay included the following steps: thawing of a frozen PFP sample, adding to it of a contact activation inhibitor and incubating the resulting mixture, sample recalcification and its placing into the measuring cuvette channel, bringing the sample into contact with the TF immobilized at the end of a special insert-activator, and detecting the appearance and growth of fibrin clots in the consequent photography mode. The frozen PFP sample was obtained preliminarily through collection of blood into sodium citrate-containing tubes from several (at least five) healthy donors and subsequent 2 stages of centrifugation and freezing of the prepared plasma at −80° C. During the assay arrangement, the fibrin clot was growing from the insert-activator; appearance of additional clots in the cuvette area far from the activator was also possible, as shown on FIG. 2. Clots in the cuvette area far from the activator can be due to the hypercoagulation state of the sample or to the artifacts of sample contact activation from the cuvette walls (artifact clots): the latter must be suppressed for the said test to allow distinguishing between the normal and hypercoagulation states of the coagulation system. To do that, before activating the sample through bringing it into contact with TF, an efficient quantity of the contact activation inhibitor was added into the sample: in this case, we used the polypeptide comprising the sequence of an infestin-4 mutant MutB. To compare the efficiency of the claimed polypeptide comprising the sequence of an infestin-4 mutant MutB with the contact activation inhibitor CTI known in the field, the said inhibitors were added into 2 separate samples of normal frozen PFP plasma. We used such concentrations of the inhibitors at which the APTT increases nearly four-fold: 20 μM in case of MutB and 15 μM in case of CTI. […] For each sample, 4 repeated measurements were performed. 30 minutes after the assay start, images of the fibrin clot in measuring cuvettes-4 cuvettes for each sample-were obtained: they are shown on FIG. 3.
The cuvette area occupied by artifact clots (in % from the total cuvette area; n=4) was plotted for 3 samples of normal frozen plasma at separate time points (FIG. 4, averaged values at each time point). Without adding the contact activation inhibitor, artifact clots appear in the cuvette area far from the activator nearly 15 minutes after activation and occupy the whole cuvette area after 30 minutes. However, after addition of CTI or MutB, such clots occupy not more than 15% of the cuvette area 30 minutes after activation. […]

[1] = system: TF-initiated fibrin clot growth; assay: Thrombodynamics analyzer T-2, fibrin clot growth from immobilized TF in normal and hypocoagulant PFP (0.1 IU/ml heparin); assay type: biochemical, human; details: MutB 20 μM, CTI 15 μM; n=4
Procedure: The influence of contact activation inhibitors on coagulation dynamics can be shown on the example of fibrin clot growth from the surface with immobilized TF. The dynamics of fibrin clot growth from the activator can be characterized by the following parameters: delay of clot formation after the contact of plasma with the tissue factor—lag time (Tlag, min); average clot growth velocity within 2-6 minutes after the start of coagulation—initial velocity (Vin, μm/min); and average clot growth velocity within 15-25 minutes after the start of coagulation—stationary velocity (Vst, μm/min) (Balandina et al. 2011, Biophys. J. 101:1816-1824; Dashkevich et at 2012, Biophys. J. 103:2233-2240). The mentioned parameters allow determining the state of blood coagulation of the subjects from whom the test samples were obtained («Practical coagulology», M A Panteleev, S A Vasilyev, E I Sinauridze and co-authors, ed. by A I Vorobyov. Moscow, publishing house «Practical medicine», 2011, 192 pages., ISBN: 978-5-98811-165-8). […]

Molecule	cuvette area occupied by artifact clots far from the activator (contact activation)	suppression of contact activation, formation of artifact clots (contact activation)	influence on the difference of fibrin clot growth dynamics between hypocoagulant and normal plasma [1]
MutB: polypeptide comprising the sequence of infestin-4 mutant MutB (SEQ ID NO: 1), inhibition loop TRNFVA; high-selectivity fXIIa inhibitor (EVRNPCACTRNFVAVCGSDGKTYGNPCMLNCAAQTKVPGLKLVHEGRCQRSNVEQF; Infestin-4 mutant MutB)	not more than 15%	almost complete suppression	does not have any influence
corn trypsin inhibitor (other, UniProt P01088 29-138, looked up, Isolated from corn; also called CTI) SAGTSCVPGWAIPHNPLPSCRWYVTSRTCGIGPRLPWPELKRRCCRELADIPAYCRCTALSILMDGAIPPGPDAQLEGRLEDLPGCPREVQRGFAATLVTEAECNLATIS	not more than 15%	almost complete suppression	does not have any influence
